Assay results taken from patent US20090131468A1, “Bis-(Sulfonylamino) Derivatives in Therapy 065” (AstraZeneca AB, priority 2007, published 2009).

molecular target: T1, human mPGES-1 (Homo sapiens, UniProt O14684); assay: Microsomal prostaglandin E synthase biochemical assay; details: microsome preparation containing human mPGES-1; PGH2 10.8 μM, GSH 2.5 mM, pH 6.8; PGE2 quantified by HTRF; average of at least n=2
T1 sequence (O14684 1-152): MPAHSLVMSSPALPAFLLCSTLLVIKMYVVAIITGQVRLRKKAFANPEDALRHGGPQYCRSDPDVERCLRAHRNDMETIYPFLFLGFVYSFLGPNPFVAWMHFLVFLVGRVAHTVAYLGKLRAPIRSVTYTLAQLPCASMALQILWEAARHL
In short: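 Human mPGES-1 microsomes (from IL-1β-stimulated A549 cells or Sf9 cells expressing human mPGES-1) were pre-incubated 15 min with compound in potassium phosphate buffer pH 6.8 with GSH. PGH2 was then added, and the reaction was stopped after one minute with acidic ferric chloride/citrate. PGE2 was read by HTRF, and IC50 was taken from control-normalised activity.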

Row | IC50 [nM] | Structure (SMILES)
1 | 7000 | C[C@]1(C(=O)NS(=O)(=O)c2ccccc2S(N)(=O)=O)CC[C@H](c2cc3ccccc3o2)CC1 [Example 108, (1r,4r)-4-(Benzofuran-2-yl)-1-methyl-N-(2-sulfamoylphenylsulfonyl)cyclohexane-carboxamide]
2 | 270 | C[C@]1(C(=O)NS(=O)(=O)c2ccccc2S(N)(=O)=O)CC[C@@H](c2cc3ccccc3o2)CC1 [Example 109, (1s,4s)-4-(Benzofuran-2-yl)-1-methyl-N-(2-sulfamoylphenylsulfonyl) cyclohexane-carboxamide]
3 | 270 | COc1cc(C(=O)NS(=O)(=O)c2ccccc2S(N)(=O)=O)ccc1C#CC(C)(C)C [Example 110, 4-(3,3-Dimethylbut-1-ynyl)-3-methoxy-N-(2-sulfamoylphenylsulfonyl)benzamide]
4 | 1400 | COC(C)(C)C#Cc1ccc(C(=O)NS(=O)(=O)c2ccccc2S(N)(=O)=O)cc1 [Example 112, 4-(3-Methoxy-3-methylbut-1-ynyl)-N-(2-sulfamoylphenylsulfonyl)benzamide]
5 | 80 | CC(C)C#Cc1ccc(C(=O)NS(=O)(=O)c2ccccc2S(N)(=O)=O)cc1 [Example 113, 4-(3-Methylbut-1-ynyl)-N-(2-sulfamoylphenylsulfonyl)benzamide]
6 | 1600 | COc1cc(C(=O)NS(=O)(=O)c2ccccc2S(N)(=O)=O)ccc1C#CC(C)(C)OC [Example 114, 3-Methoxy-4-(3-methoxy-3-methylbut-1-ynyl)-N-(2-sulfamoylphenylsulfonyl)-benzamide]
7 | 4300 | COC(C)(C)C#Cc1ccc(C(=O)NS(=O)(=O)c2ccccc2S(N)(=O)=O)cc1O [Example 115, 3-Hydroxy-4-(3-methoxy-3-methylbut-1-ynyl)-N-(2-sulfamoylphenylsulfonyl)-benzamide]
8 | 350 | CC(C)(C)C#Cc1ccc(C(=O)NS(=O)(=O)c2ccccc2S(N)(=O)=O)cn1 [Example 116, 6-(3,3-Dimethylbut-1-ynyl)-N-(2-sulfamoylphenylsulfonyl)nicotinamide]
9 | 180 | NS(=O)(=O)c1ccccc1S(=O)(=O)NC(=O)c1ccc(-c2cc3ccccc3o2)nc1 [Example 117, 6-(Benzofuran-2-yl)-N-(2-sulfamoylphenylsulfonyl)nicotinamide]
10 | 620 | COCCOCCOc1cc(C(=O)NS(=O)(=O)c2ccccc2S(N)(=O)=O)ccc1C#CC(C)(C)C [Example 118, 4-(3,3-Dimethylbut-1-ynyl)-3-(2-(2-methoxyethoxy)ethoxy)-N-(2-sulfamoylphenyl-sulfonyl)benzamide]
11 | 17 | COCCOCCOc1cc(C(=O)NS(=O)(=O)c2ccccc2S(N)(=O)=O)ccc1-c1cc2ccccc2o1 [Example 119, 4-(Benzofuran-2-yl)-3-(2-(2-methoxyethoxy)ethoxy)-N-(2-sulfamoylphenylsulfonyl)-benzamide]
12 | 28 | COc1ccccc1-c1cc2cc(C(=O)NS(=O)(=O)c3ccccc3S(N)(=O)=O)ccc2o1 [Example 120, 2-(2-Methoxyphenyl)-N-(2-sulfamoylphenylsulfonyl)benzofuran-5-carboxamide]
13 | 650 | NS(=O)(=O)c1ccccc1S(=O)(=O)NC(=O)c1ccc2oc(-c3ccccn3)cc2c1 [Example 122, 2-(Pyridin-2-yl)-N-(2-sulfamoylphenylsulfonyl)benzofuran-5-carboxamide]
14 | 2000 | NS(=O)(=O)c1ccccc1S(=O)(=O)NC(=O)c1ccc2oc(-c3cccnc3)cc2c1 [Example 123, 2-(Pyridin-3-yl)-N-(2-sulfamoylphenylsulfonyl)benzofuran-5-carboxamide]
15 | 21000 | CC(C)(O)c1cc2cc(C(=O)NS(=O)(=O)c3ccccc3S(N)(=O)=O)ccc2o1 [Example 124, 2-(2-Hydroxypropan-2-yl)-N-(2-sulfamoylphenylsulfonyl)benzofuran-5-carboxamide]
16 | 12000 | COC(C)(C)c1cc2cc(C(=O)NS(=O)(=O)c3ccccc3S(N)(=O)=O)ccc2o1 [Example 125, 2-(2-Methoxypropan-2-yl)-N-(2-sulfamoylphenylsulfonyl)benzofuran-5-carboxamide]
17 | 260 | NS(=O)(=O)c1ccccc1S(=O)(=O)NC(=O)c1ccc2oc(C3CC3)cc2c1 [Example 126, 2-Cyclopropyl-N-(2-sulfamoylphenylsulfonyl)benzofuran-5-carboxamide]
18 | 9.5 | CC(C)Oc1cc(C(=O)NS(=O)(=O)c2ccccc2S(N)(=O)=O)ccc1-c1cc2ccccc2o1 [Example 127, 4-(Benzofuran-2-yl)-3-isopropoxy-N-(2-sulfamoylphenylsulfonyl)benzamide]

Row | IC50 [nM] | Structure (SMILES)
19 | 45 | CC(C)Oc1cc(C(=O)NS(=O)(=O)c2ccccc2S(N)(=O)=O)ccc1C#CC(C)(C)C [Example 128, 4-(3,3-Dimethylbut-1-ynyl)-3-isopropoxy-N-(2-sulfamoylphenylsulfonyl)benzamide]
20 | 7000 | CC(C)Oc1cc(C(=O)NS(=O)(=O)c2ccccc2S(N)(=O)=O)ccc1C#CC(C)(C)O [Example 129, 4-(3-Hydroxy-3-methylbut-1-ynyl)-3-isopropoxy-N-(2-sulfamoylphenylsulfonyl)-benzamide]
21 | 20 | CC(C)Oc1cc(C(=O)NS(=O)(=O)c2ccccc2S(N)(=O)=O)ccc1C#CC1CCCC1 [Example 130, 4-(Cyclopentylethynyl)-3-isopropoxy-N-(2-sulfamoylphenylsulfonyl)benzamide]
22 | 14 | CC(C)Oc1cc(C(=O)NS(=O)(=O)c2ccccc2S(N)(=O)=O)ccc1C#CC1CCCCC1 [Example 131, 4-(Cyclohexylethynyl)-3-isopropoxy-N-(2-sulfamoylphenylsulfonyl)benzamide]
23 | 110 | CC(C)Oc1cc(C(=O)NS(=O)(=O)c2ccccc2S(N)(=O)=O)ccc1C#CC1CC1 [Example 132, 4-(Cyclopropylethynyl)-3-isopropoxy-N-(2-sulfamoylphenylsulfonyl)benzamide]
24 | 560 | CC(C)Oc1cc(C(=O)NS(=O)(=O)c2ccccc2S(N)(=O)=O)ccc1C#CC1(O)CCCCCC1 [Example 133, 4-((1-Hydroxycycloheptyl)ethynyl)-3-isopropoxy-N-(2-sulfamoylphenylsulfonyl)-benzamide]
25 | 180 | COCCOCCOc1cc(C(=O)NS(=O)(=O)c2ccccc2S(N)(=O)=O)cnc1C#CC(C)(C)C [Example 134, 6-(3,3-Dimethylbut-1-ynyl)-5-(2-(2-methoxyethoxy)ethoxy)-N-(2-sulfamoylphenyl-sulfonyl)nicotinamide]
26 | 81 | COCCOCCOc1cc(C(=O)NS(=O)(=O)c2ccccc2S(N)(=O)=O)cnc1-c1cc2ccccc2o1 [Example 135, 6-(Benzofuran-2-yl)-5-(2-(2-methoxyethoxy)ethoxy)-N-(2-sulfamoylphenylsulfonyl)-nicotinamide]
27 | 65 | COCCOCCOc1cc(C(=O)NS(=O)(=O)c2ccccc2S(N)(=O)=O)cnc1C#CC1CCCC1 [Example 136, 6-(Cyclopentylethynyl)-5-(2-(2-methoxyethoxy)ethoxy)-N-(2-sulfamoylphenyl-sulfonyl)nicotinamide]
28 | 20 | COc1cc(C(=O)NS(=O)(=O)c2ccccc2S(N)(=O)=O)cnc1C#CC1CCCC1 [Example 137, 6-(Cyclopentylethynyl)-5-methoxy-N-(2-sulfamoylphenylsulfonyl)nicotinamide]
29 | 12 | COc1cc(C(=O)NS(=O)(=O)c2ccccc2S(N)(=O)=O)cnc1C#CC1CCCCC1 [Example 138, 6-(Cyclohexylethynyl)-5-methoxy-N-(2-sulfamoylphenylsulfonyl)nicotinamide]
30 | 6.8 | COc1cc(C(=O)NS(=O)(=O)c2ccccc2S(N)(=O)=O)cnc1C#Cc1ccc(C(F)(F)F)cc1 [Example 139, 5-Methoxy-N-(2-sulfamoylphenylsulfonyl)-6-((4-(trifluoromethyl)phenyl)-ethynyl)nicotinamide]
31 | 300 | COCCn1c(-c2ccccc2)cc2cc(C(=O)NS(=O)(=O)c3ccccc3S(N)(=O)=O)ccc21 [Example 141, 1-(2-Methoxyethyl)-2-phenyl-N-(2-sulfamoylphenylsulfonyl)-1H-indole-5-carboxamide]
32 | 49 | CC(C)Oc1cc(C(=O)NS(=O)(=O)c2ccccc2S(N)(=O)=O)cnc1C#CC1CC1 [Example 142, 6-(cyclopropylethynyl)-5-isopropoxy-N-(2-sulfamoylphenylsulfonyl)nicotinamide]
33 | 14 | CC(C)Oc1cc(C(=O)NS(=O)(=O)c2ccccc2S(N)(=O)=O)cnc1C#CC1CCCC1 [Example 143, 6-(Cyclopentylethynyl)-5-isopropoxy-N-(2-sulfamoylphenylsulfonyl)nicotinamide]
34 | 11 | CC(C)Oc1cc(C(=O)NS(=O)(=O)c2ccccc2S(N)(=O)=O)cnc1C#CC1CCCCC1 [Example 144, 6-(Cyclohexylethynyl)-5-isopropoxy-N-(2-sulfamoylphenylsulfonyl)nicotinamide]
35 | 15 | NS(=O)(=O)c1ccccc1S(=O)(=O)NC(=O)c1ccc(C#CC2CCCC2)c(F)c1 [Example 146, 4-(Cyclopentylethynyl)-3-fluoro-N-(2-sulfamoylphenylsulfonyl)benzamide]

Row | Structure (SMILES) | IC50 [nM]
36 | CC(OC(C)(C)C)c1cc2cc(C(=O)NS(=O)(=O)c3ccccc3S(N)(=O)=O)ccc2o1 (centres unmarked) [Example 121, 2-(1-tert-Butoxyethyl)-N-(2-sulfamoylphenylsulfonyl)benzofuran-5-carboxamide] | 2100
37 | NS(=O)(=O)c1ccccc1S(=O)(=O)NC(=O)c1ccc2[nH]c(-c3ccccc3)cc2c1 [Example 140] | 140
38 | COC(C)(C)CCOc1cc(C(=O)NS(=O)(=O)c2ccccc2S(N)(=O)=O)ccc1-c1cc2ccccc2o1 [Example 145, 4-(Benzofuran-2-yl)-3-(3-methoxy-3-methylbutoxy)-N-(2-sulfamoylphenylsulfonyl)-benzamide] | 23
